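Method: 48-hour compound exposure of cells in 96-well plates, five concentrations, linear interpolation of endpoints. Abbreviation: GI50, concentration required for 50% inhibition of growth. Definition used: TGI = concentration required for complete inhibition of growth.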
Key:
Experiment in all cases: NCI-60 cell line screen, 48 h
A498 renal = system: A498 renal
COLO 205 colon = system: COLO 205 colon
DU-145 prostate = system: DU-145 prostate
HL-60(TB) leukemia = system: HL-60(TB) leukemia
HOP-62 NSCLC = system: HOP-62 NSCLC
K-562 leukemia = system: K-562 leukemia
MOLT-4 leukemia = system: MOLT-4 leukemia
NCI-H460 lung = system: NCI-H460 lung
SNB-75 CNS = system: SNB-75 CNS
SW-620 colon = system: SW-620 colon

SMILES	GI50 (A498 renal)	TGI (A498 renal)	GI50 (COLO 205 colon)	TGI (COLO 205 colon)	GI50 (DU-145 prostate)	TGI (DU-145 prostate)	GI50 (HL-60(TB) leukemia)	TGI (HL-60(TB) leukemia)	GI50 (HOP-62 NSCLC)	TGI (HOP-62 NSCLC)	GI50 (K-562 leukemia)	TGI (K-562 leukemia)	GI50 (MOLT-4 leukemia)	TGI (MOLT-4 leukemia)	GI50 (NCI-H460 lung)	TGI (NCI-H460 lung)	GI50 (SNB-75 CNS)	TGI (SNB-75 CNS)	GI50 (SW-620 colon)	TGI (SW-620 colon)
C=C(C(=O)c1ccccc1)C(NC(C)(C)C)c1ccccc1 (stereo not given)	1.7 µM	3.25 µM	1.29 µM	2.81 µM	3.11 µM	13.2 µM	2.03 µM	7.82 µM	3.38 µM	10.4 µM	1.91 µM	11.5 µM	1.76 µM	21.9 µM	2.15 µM	5.23 µM	4 µM	16.6 µM	1.14 µM	3.44 µM
CCc1ccc(Oc2c(-c3ccc(OCCc4cccc(C(F)(F)F)c4)cc3O)n[nH]c2C(F)(F)F)cc1	5.93 µM	12.8 µM	8.72 µM	15.8 µM	2.62 µM	8.35 µM	5.2 µM	12.9 µM	5.76 µM	12 µM	1.8 µM	6.1 µM	1.84 µM	7.05 µM	1.67 µM	5.74 µM	5.82 µM	12.1 µM	1.96 µM	7.57 µM
CC(C)(C)N1CC1CNC(=O)C(=O)NCC1CN1C(C)(C)C (stereo not given)	–	> 6.04 µM	–	8.5 µM	–	> 26.9 µM	–	4.57 µM	–	3.68 µM	–	15 µM	–	31.3 µM	–	24.7 µM	–	13.2 µM	–	> 11 µM
CC[C@]12C=CCN3CC[C@@]4(c5ccc(OC)cc5N(C)[C@H]4[C@@](O)(C(=O)OC)[C@@H]1OC(=O)CCC(=O)O[C@H]1CC[C@H]4[C@@H]5CCC6=CC(=O)CC[C@@H]6[C@H]5CC[C@]14C)[C@@H]32	1.38 µM	9.42 µM	0.941 µM	1.94 µM	2.73 µM	> 50 µM	1.07 µM	2.57 µM	2.4 µM	> 50 µM	1.82 µM	> 50 µM	1.55 µM	> 50 µM	3.01 µM	> 50 µM	1.08 µM	31.4 µM	2.12 µM	> 50 µM
O=S(=O)(NCCNc1nccc(-c2c(-c3ccc(F)cc3)nc3sccn23)n1)c1ccc(O)cc1	8.8 µM	23.2 µM	2 µM	14.8 µM	3.17 µM	28.8 µM	4.93 µM	30.5 µM	14.3 µM	85.6 µM	2.18 µM	> 100 µM	3.21 µM	15.7 µM	0.845 µM	27.8 µM	1.68 µM	13.1 µM	4.47 µM	41.8 µM
COc1cc(/C=C2\CCC/C(=C\c3cc(CN4CCCC4)c(O)c(OC)c3)C2=O)cc(CN2CCCC2)c1O	2.94 µM	8.54 µM	1.19 µM	2.76 µM	4.63 µM	15.4 µM	2.15 µM	5.75 µM	2.93 µM	9.35 µM	3 µM	16.9 µM	2.43 µM	8.98 µM	2.97 µM	10.6 µM	5.02 µM	47.9 µM	3.62 µM	12.9 µM

— PubChem BioAssay (NCI)
